Data as given in patent US9884063B2, “Amido-substituted azole compounds” (Bayer Pharma Aktiengesellschaft, priority 2014, dated 2018).

Tests used:
[1] = system: wildtype Wnt signaling cascade; assay: HEK293 TOP Assay (Super TopFlash luciferase reporter, Wnt-3a stimulated); format: cell-based; details: Homo sapiens, HEK293, 16 h
Procedure, shortened: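 Compounds (50 μM down to 15 nM, 3.16-fold steps, in CAFTY buffer pH 7.4, 2 mM Ca2+, 0.01% BSA) tested in parallel on TOP and FOP HEK293 reporter lines to define selective wildtype Wnt inhibition. Pathway driven by recombinant human Wnt-3a applied at 2500–5 ng/ml in two-fold dilutions.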

[2] = target: T1, TNKS2 (Homo sapiens, UniProt Q9H2K2); assay: Modified TNKS2 Assay 2 (auto-parsylation, [3H]-NAD+ SPA); format: biochemical; details: 6 nM TNKS2, 96 well
T1 sequence (Q9H2K2 1-1166): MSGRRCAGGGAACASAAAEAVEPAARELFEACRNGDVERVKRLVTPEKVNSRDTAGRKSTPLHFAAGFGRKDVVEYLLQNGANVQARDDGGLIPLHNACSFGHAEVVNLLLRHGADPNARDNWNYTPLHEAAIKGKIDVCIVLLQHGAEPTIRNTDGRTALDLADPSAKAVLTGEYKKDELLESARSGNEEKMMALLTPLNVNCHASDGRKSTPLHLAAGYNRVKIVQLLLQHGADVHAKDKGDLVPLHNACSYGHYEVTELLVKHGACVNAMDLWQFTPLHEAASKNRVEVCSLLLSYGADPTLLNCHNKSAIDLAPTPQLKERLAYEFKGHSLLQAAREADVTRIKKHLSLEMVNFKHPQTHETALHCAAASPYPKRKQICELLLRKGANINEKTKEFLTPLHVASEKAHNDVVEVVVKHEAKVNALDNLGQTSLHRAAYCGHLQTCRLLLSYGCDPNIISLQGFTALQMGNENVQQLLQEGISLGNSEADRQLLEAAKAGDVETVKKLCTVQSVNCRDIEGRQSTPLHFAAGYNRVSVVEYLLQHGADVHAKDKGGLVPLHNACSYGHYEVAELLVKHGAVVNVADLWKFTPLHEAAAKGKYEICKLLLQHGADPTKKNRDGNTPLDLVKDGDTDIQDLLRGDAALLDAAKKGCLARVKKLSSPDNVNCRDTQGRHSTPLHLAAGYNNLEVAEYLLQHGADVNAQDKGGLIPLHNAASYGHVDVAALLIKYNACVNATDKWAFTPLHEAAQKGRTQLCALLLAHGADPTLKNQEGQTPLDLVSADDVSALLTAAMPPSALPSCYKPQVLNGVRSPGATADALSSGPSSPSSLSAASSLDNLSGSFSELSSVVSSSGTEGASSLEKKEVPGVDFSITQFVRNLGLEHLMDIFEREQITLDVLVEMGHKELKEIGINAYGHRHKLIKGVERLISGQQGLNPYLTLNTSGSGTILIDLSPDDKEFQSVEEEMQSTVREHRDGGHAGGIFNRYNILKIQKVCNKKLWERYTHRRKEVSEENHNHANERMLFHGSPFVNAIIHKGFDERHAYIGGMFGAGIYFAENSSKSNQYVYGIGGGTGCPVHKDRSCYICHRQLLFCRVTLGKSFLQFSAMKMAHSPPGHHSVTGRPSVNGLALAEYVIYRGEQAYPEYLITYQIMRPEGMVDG

[3] = HEK293 TOP reporter cell line, Wnt-3a at EC50, 16 hours incubation, compound dilution series 50 μM to 15 nM
[4] = HEK293 TOP reporter cells, Wnt3a at EC50, 16 hours, luciferase

| Structure (SMILES) | IC50 [1, 3] [nM] | IC50 [2] [nM] | IC50 [1, 4] [nM] |
| --- | --- | --- | --- |
| CNC(=O)c1nc[nH]c1C(=O)Nc1ccc(NC(=O)c2ccccc2O)cc1 [Example 239, N^5-{4-[(2-hydroxybenzoyl)amino]phenyl}-N^4-methyl-1H-imidazole-4,5-dicarboxamide] | 46500 | > 10000 | – |
| O=C(Nc1ccc(NC(=O)c2ocnc2C(=O)NCCN2CCC(F)(F)CC2)cc1)c1ccc(F)cc1Cl [Example 218, N^5-{4-[(2-chloro-4-fluorobenzoyl)amino]phenyl}-N^4-[2-(4,4-difluoropiperidin-1-yl)ethyl]-1,3-oxazole-4,5-dicarboxamide] | 1610 | 110 | – |
| O=C(Nc1ccc(NC(=O)c2nc[nH]c2C(=O)NCCCN2CCOCC2)cc1)c1ccc(F)cc1 [Example 206, N^4-{4-[(4-fluorobenzoyl)amino]phenyl}-N^5-[3-(morpholin-4-yl)propyl]-1H-imidazole-4,5-dicarboxamide] | 2100 | 5300 | – |
| CC(C)(CN1CCOCC1)NC(=O)c1[nH]cnc1C(=O)Nc1ccc(NC(=O)c2ccc(F)cc2)cc1 [Example 180, N^4-{4-[(4-fluorobenzoyl)amino]phenyl}-N^5-[2-methyl-1-(morpholin-4-yl)propan-2-yl]-1H-imidazole-4,5-dicarboxamide] | 5350 | 6900 | – |
| CNC(=O)c1nc[nH]c1C(=O)Nc1ccc(NC(=O)c2ccc(N(C)C)cc2Cl)cc1 [Example 4, N^5-(4-{[2-chloro-4-(dimethylamino)benzoyl]amino}phenyl)-N^4-methyl-1H-imidazole-4,5-dicarboxamide] | 910 | > 10000 | 910 |
| CC(C)(CN1CCCCC1)NC(=O)c1[nH]cnc1C(=O)Nc1ccc(NC(=O)c2ccccc2Cl)cc1 [Example 171, N^4-{4-[(2-chlorobenzoyl)amino]phenyl}-N^5-[2-methyl-1-(piperidin-1-yl)propan-2-yl]-1H-imidazole-4,5-dicarboxamide] | 670 | 340 | – |
| CCNC(=O)c1nc[nH]c1C(=O)Nc1ccc(NC(=O)c2ccc(OCC)cc2Cl)cc1 [Example 259, N^5-{4-[(2-chloro-4-ethoxybenzoyl)amino]phenyl}-N^4-ethyl-1H-imidazole-4,5-dicarboxamide] | 880 | 7600 | – |
| COCCNC(=O)c1[nH]cnc1C(=O)Nc1ccc(NC(=O)c2ccc(F)cc2Cl)cc1 [Example 130, N^4-{4-[(2-chloro-4-fluorobenzoyl)amino]phenyl}-N^5-(2-methoxyethyl)-1H-imidazole-4,5-dicarboxamide] | 250 | 70 | – |
| CC(C)(C)CNC(=O)c1[nH]cnc1C(=O)Nc1ccc(NC(=O)c2ccccc2Cl)cc1 [Example 148, N^4-{4-[(2-chlorobenzoyl)amino]phenyl}-N^5-(2,2-dimethylpropyl)-1H-imidazole-4,5-dicarboxamide] | 1750 | 1100 | – |

Now those with a lower IC50 [1, 3], led by results:

| IC50 [1, 3] [nM] | IC50 [2] [nM] | IC50 [1, 4] [nM] | Structure (SMILES) |
| --- | --- | --- | --- |
| 30 | 2 | – | CC1CCCN(CCNC(=O)c2[nH]cnc2C(=O)Nc2ccc(NC(=O)c3ccc(F)cc3Cl)cc2)C1 (stereo not drawn) [Example 208, N^4-{4-[(2-chloro-4-fluorobenzoyl)amino]phenyl}-N^5-[2-(3-methylpiperidin-1-yl)ethyl]-1H-imidazole-4,5-dicarboxamide] |
| 140 | 60 | 150 | CNC(=O)c1nc[nH]c1C(=O)Nc1ccc(NC(=O)c2ccc(F)cc2Cl)cc1 [Example 12, N^5-{4-[(2-chloro-4-fluorobenzoyl)amino]phenyl}-N^4-methyl-1H-imidazole-4,5-dicarboxamide] |
| 170 | 350 | 180 | CC(C)NC(=O)c1nc[nH]c1C(=O)Nc1ccc(NC(=O)c2ccc(F)cc2Cl)cc1 [Example 10, N^5-{4-[(2-chloro-4-fluorobenzoyl)amino]phenyl}-N^4-isopropyl-1H-imidazole-4,5-dicarboxamide] |
| 230 | 180 | 230 | CNC(=O)c1nc[nH]c1C(=O)Nc1ccc(NC(=O)c2ccncc2Cl)cc1 [Example 6, N^5-{4-[(3-chloroisonicotinoyl)amino]phenyl}-N^4-methyl-1H-imidazole-4,5-dicarboxamide] |
